From US20090005442A1, “CARBAMATE COMPOUNDS FOR USE IN PREVENTING OR TREATING NEURODEGENERATIVE DISORDERS” (priority 2001, published 2009)

Tested on: PC12 cells
Test: PC12 cell serum withdrawal model (MTS cell survival assay)
Type: cell-based
Conditions: control cells = 100%; for 7 Day Survival Rate (%): 10 μM applied at serum withdrawal and every 48 hr, MTS assay at 7 days; for 2 Day Survival Rate (%): 10 μM applied once at serum withdrawal, MTS assay at 2 days
Text: Serum withdrawal is a cytotoxic environmental challenge that results in cell death in cultured cell lines as well as in primary cells of various tissue origins, including nerve cells. In particular, pheochromocytoma (PC) 12 cells have been widely employed as an in vitro neuronal cell model for a wide variety of neurodegenerative and cell death related disorders (Muriel, et al, Mitochondrial free calcium levels (Rhod-2 fluorescence) and ultrastructural alterations in neuronally differentiated PC12 cells during ceramide-dependent cell death, J. Comp. Neurol., 2000, 426(2), 297-315; Dermitzaki, et al, Opioids transiently prevent activation of apoptotic mechanisms following short periods of serum withdrawal, J. Neurochem., 2000, 74(3), 960-969; Carlile, et al, Reduced apoptosis after nerve growth factor and serum withdrawal: conversion of tetrameric glyceraldehyde-3-phosphate dehydrogenase to a dimer, Mol. Pharmacol., 2000, 57(1), 2-12).
PC12 cells were cultured in sterile media (RPMI 1640) supplemented with 10% heat-inactivated horse serum and 5% fetal bovine serum (FBS). The culture medium also contained 1× Penicillin-Streptomycin-Neomycin antibiotic (50 μg, 50 μg, 100 μg, respectively). Medium was exchanged every other day and the cells were passed in log phase near confluence.
The control cells were cultured in regular media without any treatment. An enantiomer of Formula (Ib) or […] (10 μM) was mixed well in the medium and then applied to the cells. For the 2 day assay, an enantiomer of Formula (Ib) or […] (10 μM) was only applied to the cells once at the time of serum withdrawal. For the 7 day assay, an enantiomer of Formula (Ib) or Formula (IIb) (10 μM) was applied to the cells at the time of serum withdrawal and every 48 hr thereafter when cells were changed with fresh new serum-free medium. In the serum withdrawal group, the cells were cultured in serum-free medium with no additional enantiomer of Formula (Ib) or Formula (IIb). Cell survival was determined by the 3-(4,5-dimethylthiazol-2-yl)-5-(3-carboxy-methoxyphenyl)-2-(4-sulfophenyl)-2H-tetrazolium inner salt (MTS) assay at 2 or 7 days after serum withdrawal.
At the end of the experiment, cells were washed with fresh medium and incubated with MTS solution in a humidified 37° C. with 5% CO2 incubator for 1.5 hr. After the incubation period, the cells were immediately analyzed using a Softmax program (Molecular Devices). […] The assay is based on the cellular conversion of the tetrazolium salt, MTS, into a formazan that is soluble in tissue culture medium and measured directly at 490 nm in 96-well assay plates. The absorbance is directly proportional to the number of living cells in culture. The arbitrary absorbance reading in control cells is expressed as 100% survival rate.

SMILES	7 Day Survival Rate (%)	2 Day Survival Rate (%)
NC(=O)OC[C@H](OC(N)=O)c1ccccc1Cl [Formula (IIb)]	85.2 ± 0.6^2%	66.4 ± 5.4^1%
NC(=O)OC[C@@H](O)c1ccccc1Cl [Formula (Ib)]	79.9 ± 4.0^2%	69.4 ± 1.7^1%
